Reference: paper PMC6222927, “Aminobenzosuberone Scaffold as a Modular Chemical Tool for the Inhibition of Therapeutically Relevant M1 Aminopeptidases” (Molecules : A Journal of Synthetic Chemistry and Natural …, 2018)
Where two headings read alike, the source gives them in different places.

Key:
[1] = molecular target: T1, human endoplasmic reticulum aminopeptidase 2 (rHsERAP2) (Homo sapiens, UniProt Q6P179); test: rHsERAP2 inhibition, R-AMC fluorigenic substrate; format: biochemical; details: 50 µM R-AMC
T1 construct: made in house; host or cells: Hi5 insect cells (baculovirus produced in sf9)
T1 sequence (Q6P179 whole entry): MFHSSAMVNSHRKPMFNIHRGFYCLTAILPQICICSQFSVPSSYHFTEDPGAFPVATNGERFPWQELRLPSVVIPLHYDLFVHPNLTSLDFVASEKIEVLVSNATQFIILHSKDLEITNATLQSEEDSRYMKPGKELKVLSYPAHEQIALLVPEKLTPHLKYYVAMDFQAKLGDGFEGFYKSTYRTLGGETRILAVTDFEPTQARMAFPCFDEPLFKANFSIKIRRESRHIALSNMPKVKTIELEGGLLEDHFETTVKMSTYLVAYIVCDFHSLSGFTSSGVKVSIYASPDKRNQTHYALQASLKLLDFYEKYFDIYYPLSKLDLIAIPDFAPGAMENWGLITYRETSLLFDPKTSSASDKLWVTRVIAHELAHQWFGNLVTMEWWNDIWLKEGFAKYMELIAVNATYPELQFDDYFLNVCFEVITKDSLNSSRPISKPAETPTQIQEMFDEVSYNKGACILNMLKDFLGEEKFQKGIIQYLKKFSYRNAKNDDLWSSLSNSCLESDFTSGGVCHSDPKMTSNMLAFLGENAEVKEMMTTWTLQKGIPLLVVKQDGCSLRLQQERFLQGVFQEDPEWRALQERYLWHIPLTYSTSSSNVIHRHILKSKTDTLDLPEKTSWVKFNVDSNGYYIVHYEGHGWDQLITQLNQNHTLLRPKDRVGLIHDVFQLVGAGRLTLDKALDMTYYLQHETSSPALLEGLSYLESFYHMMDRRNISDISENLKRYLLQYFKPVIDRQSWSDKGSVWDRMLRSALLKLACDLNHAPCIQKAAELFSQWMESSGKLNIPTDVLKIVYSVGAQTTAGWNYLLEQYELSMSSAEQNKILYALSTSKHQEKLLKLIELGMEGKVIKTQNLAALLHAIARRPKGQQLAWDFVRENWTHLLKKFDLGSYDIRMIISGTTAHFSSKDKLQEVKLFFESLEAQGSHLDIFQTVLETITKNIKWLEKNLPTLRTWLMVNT
Protocol: (§1) The enzymatic activity of HsERAP1, HsERAP2 and HsIRAP was determined by following the time-dependent increase in fluorescence at 460 nm (excitation: 380 nm) of the fluorigenic substrates L-Leucine-7-amido-4-methyl coumarin (L-AMC; Sigma, Darmstatd, Germany) for HsERAP1 and HsIRAP and L-arginyl-7-amido-4-methyl coumarin (R-AMC; Sigma) for HsERAP2. […] The reaction was followed for 10 min at room temperature and the remaining enzymatic activity was calculated by measuring the slope of the time course.

[2] = Octanol/water partition coefficient (logD7.4) by reversed-phase HPLC; details: pH 7.4
Protocol: The flow was 0.9 mL/min. The aminobenzosuberone derivatives were dissolved at 0.4 µM in methanol. The standards were also dissolved in methanol. Column void volume was estimated from the retention time of uracil, which was included as a non-retained internal reference with each injection.

[3] = molecular target: T2, P. falciparum rPfAM17 (Plasmodium falciparum, UniProt Q8IL11); design: method as in PMID 28934959; details: ref 69; cited from earlier work
T2 construct: made in house; host or cells: Escherichia coli Rosetta 2 (DE3)
T2 sequence (Q8IL11 1-605): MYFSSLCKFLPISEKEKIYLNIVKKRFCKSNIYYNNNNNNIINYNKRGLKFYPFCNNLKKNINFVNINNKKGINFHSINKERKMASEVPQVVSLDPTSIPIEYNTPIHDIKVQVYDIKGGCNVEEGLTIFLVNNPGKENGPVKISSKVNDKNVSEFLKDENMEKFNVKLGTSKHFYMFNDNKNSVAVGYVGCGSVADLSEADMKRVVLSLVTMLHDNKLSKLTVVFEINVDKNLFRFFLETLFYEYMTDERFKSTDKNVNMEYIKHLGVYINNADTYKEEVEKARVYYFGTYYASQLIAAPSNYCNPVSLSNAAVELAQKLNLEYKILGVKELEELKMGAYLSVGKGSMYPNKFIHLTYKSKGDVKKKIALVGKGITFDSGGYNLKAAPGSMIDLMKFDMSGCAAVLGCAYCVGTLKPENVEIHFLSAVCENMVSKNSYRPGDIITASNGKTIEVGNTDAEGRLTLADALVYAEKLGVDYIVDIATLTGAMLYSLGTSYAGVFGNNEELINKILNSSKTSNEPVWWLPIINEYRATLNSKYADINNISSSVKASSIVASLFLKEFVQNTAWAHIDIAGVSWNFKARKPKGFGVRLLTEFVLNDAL

[4] = molecular target: E. coli rEcPepN (Escherichia coli, UniProt P04825); test: rEcPepN inhibition, Leu-pNA substrate, Dixon method; format: biochemical
Chain of E. coli rEcPepN (P04825 whole entry): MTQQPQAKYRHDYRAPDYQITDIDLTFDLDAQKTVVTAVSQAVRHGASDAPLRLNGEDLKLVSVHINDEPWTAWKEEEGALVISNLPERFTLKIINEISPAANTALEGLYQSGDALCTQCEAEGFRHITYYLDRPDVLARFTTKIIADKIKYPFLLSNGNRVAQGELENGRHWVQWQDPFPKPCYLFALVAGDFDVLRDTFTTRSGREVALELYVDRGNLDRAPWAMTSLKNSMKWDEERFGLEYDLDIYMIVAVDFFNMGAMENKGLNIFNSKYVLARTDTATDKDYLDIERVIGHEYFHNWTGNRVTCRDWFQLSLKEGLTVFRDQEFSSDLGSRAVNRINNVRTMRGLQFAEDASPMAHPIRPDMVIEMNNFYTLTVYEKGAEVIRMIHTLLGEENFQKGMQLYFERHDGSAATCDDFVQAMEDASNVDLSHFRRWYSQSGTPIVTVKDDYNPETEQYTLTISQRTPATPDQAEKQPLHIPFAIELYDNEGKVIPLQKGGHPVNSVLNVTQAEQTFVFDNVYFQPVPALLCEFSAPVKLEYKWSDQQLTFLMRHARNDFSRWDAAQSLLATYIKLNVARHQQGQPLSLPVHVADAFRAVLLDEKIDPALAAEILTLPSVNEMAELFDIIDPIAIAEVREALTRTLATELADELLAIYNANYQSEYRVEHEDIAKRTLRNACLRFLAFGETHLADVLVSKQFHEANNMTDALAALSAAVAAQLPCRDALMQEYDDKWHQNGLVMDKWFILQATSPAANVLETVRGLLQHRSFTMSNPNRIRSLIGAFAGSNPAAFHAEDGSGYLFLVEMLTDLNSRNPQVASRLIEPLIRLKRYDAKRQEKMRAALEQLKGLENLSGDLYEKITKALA
Protocol: Enzyme activity assays were carried out in 10 mM Tris-HCl buffer at pH 7.5 with 150 mM NaCl, enzyme, 100 µM substrate (Leu-pNA) in a 100 μL reaction at 37 °C. The absorbance was read at 405 nm. Concentrations ranging from 1 nM to 100 μM of inhibitors (dissolved in DMSO) were incubated with each of the enzymes ([…]) for 30 min at 37 °C in a 96 well plate. After addition of the substrate, immediate increase in absorption was measured. All inhibition assays were performed in triplicates and initial velocities were measured. Percentage inhibition and log values of inhibitor concentrations were plotted using SigmaPlot to determine IC50 values. Ki values were determined by the Dixon method. The assay consists of reaction buffer, enzyme and varied concentrations of Leu-pNA (25, 50, 100, 200 and 400 µM). […] Data were plotted as 1/rate versus inhibitor concentration for each substrate concentration and a linear fit was calculated by non-linear regression using SigmaPlot12.5. All the reactions were performed in triplicates, SD values were reported.

[5] = molecular target: pAPN from porcine kidney; details: Dixon plots; cited from earlier work
[6] = molecular target: T3, human endoplasmic reticulum aminopeptidase 1 (rHsERAP1) (Homo sapiens, UniProt Q9NZ08); test: rHsERAP1 inhibition, L-AMC fluorigenic substrate; format: biochemical; details: 50 µM L-AMC
T3 construct: made in house; host or cells: Hi5 insect cells (baculovirus produced in sf9)
T3 sequence (Q9NZ08 whole entry): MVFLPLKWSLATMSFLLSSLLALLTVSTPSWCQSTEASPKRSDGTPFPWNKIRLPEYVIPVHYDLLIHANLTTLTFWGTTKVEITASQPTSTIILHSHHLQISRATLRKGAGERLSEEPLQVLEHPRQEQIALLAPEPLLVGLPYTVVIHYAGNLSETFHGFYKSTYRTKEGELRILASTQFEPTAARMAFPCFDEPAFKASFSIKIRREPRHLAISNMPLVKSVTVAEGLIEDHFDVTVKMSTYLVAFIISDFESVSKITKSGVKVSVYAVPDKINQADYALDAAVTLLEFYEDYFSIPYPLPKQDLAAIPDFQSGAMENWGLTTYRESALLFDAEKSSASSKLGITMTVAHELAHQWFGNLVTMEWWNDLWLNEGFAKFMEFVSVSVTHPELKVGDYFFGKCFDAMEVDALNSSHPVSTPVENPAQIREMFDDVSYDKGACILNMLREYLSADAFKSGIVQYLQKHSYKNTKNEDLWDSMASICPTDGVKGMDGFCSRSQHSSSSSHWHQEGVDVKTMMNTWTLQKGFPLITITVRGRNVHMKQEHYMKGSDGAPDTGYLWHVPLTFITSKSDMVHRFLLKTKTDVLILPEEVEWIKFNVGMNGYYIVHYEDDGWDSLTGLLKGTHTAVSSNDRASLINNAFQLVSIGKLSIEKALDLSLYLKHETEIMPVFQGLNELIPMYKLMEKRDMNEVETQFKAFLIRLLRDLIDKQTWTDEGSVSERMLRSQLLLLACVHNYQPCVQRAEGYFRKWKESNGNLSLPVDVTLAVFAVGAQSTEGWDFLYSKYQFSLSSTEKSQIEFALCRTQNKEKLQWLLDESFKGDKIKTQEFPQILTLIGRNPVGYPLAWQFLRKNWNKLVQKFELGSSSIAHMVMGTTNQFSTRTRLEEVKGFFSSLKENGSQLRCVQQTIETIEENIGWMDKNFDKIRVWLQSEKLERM
Protocol: as §1

[7] = molecular target: T4, P. falciparum rPfAM1 (Plasmodium falciparum, UniProt O96935); design: method as in PMID 28934959; details: read-out: Ki rPfAM1; cited from earlier work
T4 construct: made in house; host or cells: Escherichia coli Rosetta 2 (DE3)
T4 sequence (O96935 1-1085): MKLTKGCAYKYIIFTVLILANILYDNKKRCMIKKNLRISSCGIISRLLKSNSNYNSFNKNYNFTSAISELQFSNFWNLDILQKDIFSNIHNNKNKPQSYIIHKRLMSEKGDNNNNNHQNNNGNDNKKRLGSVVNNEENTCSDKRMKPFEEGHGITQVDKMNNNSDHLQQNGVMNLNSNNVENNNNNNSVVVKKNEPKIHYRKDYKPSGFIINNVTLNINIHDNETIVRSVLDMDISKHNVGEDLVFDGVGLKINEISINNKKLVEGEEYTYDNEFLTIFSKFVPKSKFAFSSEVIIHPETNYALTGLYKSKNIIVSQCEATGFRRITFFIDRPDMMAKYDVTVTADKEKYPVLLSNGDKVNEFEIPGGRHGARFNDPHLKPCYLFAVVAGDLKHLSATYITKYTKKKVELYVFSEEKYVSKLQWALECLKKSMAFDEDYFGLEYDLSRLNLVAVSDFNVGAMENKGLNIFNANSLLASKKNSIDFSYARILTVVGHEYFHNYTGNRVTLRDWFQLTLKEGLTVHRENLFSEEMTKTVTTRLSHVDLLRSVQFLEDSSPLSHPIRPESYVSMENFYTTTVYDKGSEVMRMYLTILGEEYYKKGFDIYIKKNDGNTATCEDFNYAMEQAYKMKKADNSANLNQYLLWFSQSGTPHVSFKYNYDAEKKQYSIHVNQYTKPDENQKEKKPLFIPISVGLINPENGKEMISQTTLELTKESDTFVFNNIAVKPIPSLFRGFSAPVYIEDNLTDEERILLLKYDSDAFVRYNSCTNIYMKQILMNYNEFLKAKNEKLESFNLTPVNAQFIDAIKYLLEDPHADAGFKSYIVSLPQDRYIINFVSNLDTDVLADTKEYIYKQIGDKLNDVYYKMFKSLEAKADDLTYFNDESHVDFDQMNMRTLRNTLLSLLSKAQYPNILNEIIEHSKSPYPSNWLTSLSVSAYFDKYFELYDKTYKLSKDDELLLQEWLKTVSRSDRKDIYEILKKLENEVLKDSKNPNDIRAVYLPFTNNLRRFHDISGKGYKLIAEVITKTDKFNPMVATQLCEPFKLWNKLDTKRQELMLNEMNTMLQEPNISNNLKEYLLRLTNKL

[8] = molecular target: human leukotriene A4 hydrolase (rHsLTA4H); design: method as in PMID 21843945; details: ref 58; cited from earlier work
[9] = molecular target: aminopeptidase from A. proteolytica (AAP); design: method as in PMID 21843945; details: ref 58; cited from earlier work
[10] = molecular target: human puromycine sensitive aminopeptidase (rHsPSA) (Homo sapiens, UniProt P55786); test: rHsPSA inhibition, Leu-pNA substrate, Dixon method; format: biochemical; details: triplicate, SD
Chain of human puromycine sensitive aminopeptidase (rHsPSA) (P55786 whole entry): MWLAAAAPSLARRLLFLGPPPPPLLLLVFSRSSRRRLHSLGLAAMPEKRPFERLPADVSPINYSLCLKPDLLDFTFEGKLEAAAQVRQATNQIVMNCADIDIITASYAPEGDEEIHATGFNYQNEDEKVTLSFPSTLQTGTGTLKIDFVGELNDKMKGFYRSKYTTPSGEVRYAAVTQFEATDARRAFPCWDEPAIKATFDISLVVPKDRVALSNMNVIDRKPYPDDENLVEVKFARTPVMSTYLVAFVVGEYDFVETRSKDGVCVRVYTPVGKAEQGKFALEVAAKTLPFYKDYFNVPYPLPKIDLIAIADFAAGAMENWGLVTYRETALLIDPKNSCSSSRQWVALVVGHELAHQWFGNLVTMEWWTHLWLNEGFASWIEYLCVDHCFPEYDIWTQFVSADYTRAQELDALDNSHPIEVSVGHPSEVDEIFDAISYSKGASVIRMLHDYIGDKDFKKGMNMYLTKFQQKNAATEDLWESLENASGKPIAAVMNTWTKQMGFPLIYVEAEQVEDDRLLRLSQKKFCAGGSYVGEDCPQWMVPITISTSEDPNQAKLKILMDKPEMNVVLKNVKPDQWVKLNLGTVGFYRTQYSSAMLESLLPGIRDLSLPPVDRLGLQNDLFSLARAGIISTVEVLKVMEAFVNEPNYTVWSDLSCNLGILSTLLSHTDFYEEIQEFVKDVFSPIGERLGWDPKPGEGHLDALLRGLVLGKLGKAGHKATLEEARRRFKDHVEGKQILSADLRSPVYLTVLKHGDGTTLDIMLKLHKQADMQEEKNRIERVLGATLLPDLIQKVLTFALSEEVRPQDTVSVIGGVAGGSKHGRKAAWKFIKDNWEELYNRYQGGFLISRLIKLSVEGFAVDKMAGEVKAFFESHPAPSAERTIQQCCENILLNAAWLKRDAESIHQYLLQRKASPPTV
Protocol: Enzyme activity assays were carried out in 10 mM Tris-HCl buffer at pH 7.5 with 150 mM NaCl, enzyme, 100 µM substrate (Leu-pNA) in a 100 μL reaction at 37 °C. The absorbance was read at 405 nm. Concentrations ranging from 1 nM to 100 μM of inhibitors (dissolved in DMSO) were incubated with each of the enzymes ([…]) for 30 min at 37 °C in a 96 well plate. After addition of the substrate, immediate increase in absorption was measured. All inhibition assays were performed in triplicates and initial velocities were measured. Percentage inhibition and log values of inhibitor concentrations were plotted using SigmaPlot to determine IC50 values. Ki values were determined by the Dixon method. The assay consists of reaction buffer, enzyme and varied concentrations of Leu-pNA (25, 50, 100, 200 and 400 µM). […]. All the reactions were performed in triplicates, SD values were reported.

[11] = molecular target: human Leucyl-cystinyl aminopeptidase (HsIRAP); details: ref 48; cited from earlier work
[12] = molecular target: human puromycine sensitive aminopeptidase (HsPSA); details: ref 37; cited from earlier work
[13] = molecular target: mammalian cytosolic leucine aminopeptidase (mLAPc); details: cited from earlier work
[14] = molecular target: P. falciparum (PfAM1) M1 aminopeptidase; details: ref 44; cited from earlier work
[15] = molecular target: mammalian aminopeptidase N (mAPN); details: cited from earlier work
[16] = molecular target: bimetallic aminopeptidase from A. proteolytica (AAP); design: method as in PMID 21292493; details: ref 42; cited from earlier work
[17] = molecular target: human endoplasmic reticulum aminopeptidase 1 (HsERAP1); details: ref 41; cited from earlier work
[18] = molecular target: human arginyl aminopeptidase B (HsAPB); details: cited from earlier work
[19] = molecular target: P. falciparum M17 aminopeptidase (PfAM17); details: ref 45; cited from earlier work
[20] = test system: E. coli (EcPepN) M1 aminopeptidase; details: ref 43; cited from earlier work

Structure (SMILES): NC1CCc2cccc(-c3ccccc3)c2CC1=O (centres unmarked) [21c]
- IC50 [1]: 18000 ± 1300 nM
- chromatographic logD [2]: 2.12
- Ki [3]: > 100000 nM
- Ki [4]: 160 ± 12 nM
- Ki [5]: 7 nM
- IC50 [6]: 63000 ± 3000 nM
- Ki [7]: 50 ± 5 nM
- Ki [8]: 19000 nM
- Ki [9]: 28000 nM
- Ki [10]: 50 ± 4 nM

Structure (SMILES): C#CC[C@H](CP(=O)(O)[C@@H](N)CCc1ccccc1)C(=O)N[C@@H](Cc1ccccc1)C(N)=O [compound 3]
- IC50 [11]: 2 nM

Structure (SMILES): CC(C)C[C@H](NC(=O)[C@@H](O)[C@H](N)Cc1ccccc1)C(=O)O [compound 1, Bestatin]
- IC50 [12]: 350 nM
- Ki ([13]; ref 38): 0.6 nM
- Ki ([13]; ref 39): 20 nM
- Ki [14]: 190 nM
- IC50 ([15]; ref 37): 300 nM
- Ki ([15]; ref 40): 89000 nM
- Ki [16]: 1.6 nM
- Ki [17]: 11200 nM
- Ki ([18]; ref 38): 6000 nM
- Ki ([18]; ref 39): 14 nM
- Ki [19]: 25 nM
- IC50 [20]: 7300 nM
